Tests used:
[1] = Colon and plasma mouse pharmacokinetics; assay type: in vivo; conditions: mouse, colon tissue / plasma; male Balb/c mice, 10 mg/kg PO; ratio of the colon AUC to the plasma AUC
Protocol: Assay 5: Colon and Plasma Mouse Pharmacokinetics
To 6 male Balb/c mice was administered 10 mg/kg of compound in 1% HPMC+0.1% Tween-80 by PO administration. At 0.5, 2 and 6 hours after dose administration, animals were anesthetized, and terminal blood samples were collected by cardiac puncture, followed by collection of colon contents and colon tissue.
Blood samples were collected into K2EDTA and stored on wet ice until processed to plasma by centrifugation (12000 rpm at 4° C.). Plasma samples were transferred to cluster tubes and placed on dry ice prior to freezer storage. The colon contents from each animal were collected at each terminal blood collection time point. The colon tissues were flushed with saline and patted dry. The colon and colon content tissues were homogenized using sterile water containing 0.1% formic acid 9:1 (water:tissue, v/w). The homogenized tissues and colon contents were transferred to cluster tubes and placed on dry ice prior to freezer storage. All samples were analyzed using LC/MS/MS against analytical standards.
The composite pharmacokinetic parameters of the compounds were determined by non-compartmental analysis using Phoenix WinNonlin Version 6 (Certara, St. Louis, Mo.) and using mean values from 2 animals/time point. For plasma concentrations below the quantification limit (BQL), the lowest concentration measurable or the BLOQ (below limit of quantification) was used.
A colon to plasma ratio was determined as the ratio of the colon AUC to the plasma AUC.

Tyk2 = Tyk2 (Homo sapiens (Human), UniProt P29597); assay: Biochemical Tyk2 kinase assay (LanthaScreen)
Tyk2, sequence (P29597 whole entry): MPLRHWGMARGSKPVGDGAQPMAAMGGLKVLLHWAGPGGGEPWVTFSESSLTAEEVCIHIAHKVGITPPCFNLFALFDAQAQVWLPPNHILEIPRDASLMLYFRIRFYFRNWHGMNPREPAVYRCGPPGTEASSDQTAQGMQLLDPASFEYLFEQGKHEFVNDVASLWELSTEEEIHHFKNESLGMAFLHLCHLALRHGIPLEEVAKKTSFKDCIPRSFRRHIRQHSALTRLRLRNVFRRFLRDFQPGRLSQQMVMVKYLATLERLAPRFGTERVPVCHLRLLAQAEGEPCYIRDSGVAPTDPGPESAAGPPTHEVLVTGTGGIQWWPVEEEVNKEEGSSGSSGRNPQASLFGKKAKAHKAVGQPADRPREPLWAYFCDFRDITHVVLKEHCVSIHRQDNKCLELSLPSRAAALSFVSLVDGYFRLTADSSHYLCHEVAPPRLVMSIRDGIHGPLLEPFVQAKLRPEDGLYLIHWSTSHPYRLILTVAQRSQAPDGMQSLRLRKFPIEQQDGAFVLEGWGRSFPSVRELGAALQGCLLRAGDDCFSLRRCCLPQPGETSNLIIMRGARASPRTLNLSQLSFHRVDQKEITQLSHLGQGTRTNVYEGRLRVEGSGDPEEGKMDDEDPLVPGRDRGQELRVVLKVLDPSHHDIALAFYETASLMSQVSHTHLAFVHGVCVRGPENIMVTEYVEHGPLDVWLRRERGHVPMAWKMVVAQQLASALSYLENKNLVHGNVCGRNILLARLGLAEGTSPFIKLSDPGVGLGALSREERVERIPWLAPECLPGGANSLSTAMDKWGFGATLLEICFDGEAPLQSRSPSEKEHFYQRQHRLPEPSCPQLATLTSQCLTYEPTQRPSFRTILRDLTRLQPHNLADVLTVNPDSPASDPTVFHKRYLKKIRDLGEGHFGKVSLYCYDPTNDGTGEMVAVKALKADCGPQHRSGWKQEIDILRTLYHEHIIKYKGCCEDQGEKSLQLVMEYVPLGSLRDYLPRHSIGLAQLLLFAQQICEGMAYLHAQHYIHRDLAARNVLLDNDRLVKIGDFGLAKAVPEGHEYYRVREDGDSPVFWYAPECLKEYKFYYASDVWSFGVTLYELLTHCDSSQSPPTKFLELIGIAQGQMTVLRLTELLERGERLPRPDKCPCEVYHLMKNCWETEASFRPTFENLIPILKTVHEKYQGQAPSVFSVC
Summary of the method: (§1)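 GST-JAK + GFP-STAT1 peptide, HEPES pH 7.5/MgCl2/EGTA/Brij-35 buffer; cpd preincubation 1 h RT; ATP start, 1 h RT; stop with 10 mM EDTA + 2 nM Tb-anti-pSTAT1; TR-FRET 520/495. 4-parameter IC50 → pKi (Cheng-Prusoff).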

JAK1 = JAK1 (Homo sapiens (Human), UniProt P23458); assay: Biochemical JAK1 kinase assay (LanthaScreen)
JAK1, sequence (P23458 whole entry): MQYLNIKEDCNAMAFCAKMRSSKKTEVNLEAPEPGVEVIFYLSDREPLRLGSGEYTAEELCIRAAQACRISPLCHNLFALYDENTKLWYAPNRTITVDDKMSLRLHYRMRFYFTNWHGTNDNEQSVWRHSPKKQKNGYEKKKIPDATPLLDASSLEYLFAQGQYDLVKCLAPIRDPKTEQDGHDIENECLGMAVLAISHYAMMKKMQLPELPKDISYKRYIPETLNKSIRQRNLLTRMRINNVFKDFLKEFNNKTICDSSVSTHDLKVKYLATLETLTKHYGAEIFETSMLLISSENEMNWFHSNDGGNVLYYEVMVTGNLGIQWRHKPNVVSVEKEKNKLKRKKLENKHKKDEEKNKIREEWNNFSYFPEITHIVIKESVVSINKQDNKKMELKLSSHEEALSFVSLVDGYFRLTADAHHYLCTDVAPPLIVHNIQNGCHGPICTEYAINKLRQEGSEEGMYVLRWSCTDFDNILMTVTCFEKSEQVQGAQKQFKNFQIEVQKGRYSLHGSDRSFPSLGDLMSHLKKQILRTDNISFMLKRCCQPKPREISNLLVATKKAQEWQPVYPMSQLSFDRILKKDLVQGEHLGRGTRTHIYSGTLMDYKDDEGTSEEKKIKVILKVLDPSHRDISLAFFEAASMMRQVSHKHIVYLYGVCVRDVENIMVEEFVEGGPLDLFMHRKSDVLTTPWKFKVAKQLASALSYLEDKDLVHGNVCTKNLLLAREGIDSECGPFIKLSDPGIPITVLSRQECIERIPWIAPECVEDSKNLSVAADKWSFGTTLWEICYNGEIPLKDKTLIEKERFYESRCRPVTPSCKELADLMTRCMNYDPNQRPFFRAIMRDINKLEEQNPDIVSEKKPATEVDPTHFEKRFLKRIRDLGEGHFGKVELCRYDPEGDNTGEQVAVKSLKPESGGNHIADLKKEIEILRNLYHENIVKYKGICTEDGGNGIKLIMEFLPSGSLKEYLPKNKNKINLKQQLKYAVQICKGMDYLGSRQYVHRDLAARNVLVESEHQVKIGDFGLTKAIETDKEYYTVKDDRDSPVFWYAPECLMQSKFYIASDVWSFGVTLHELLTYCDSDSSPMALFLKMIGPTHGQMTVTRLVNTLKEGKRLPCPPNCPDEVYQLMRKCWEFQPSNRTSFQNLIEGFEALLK
Summary of the method: as §1

Caco-2 cell monolayers = assay: Caco-2 permeation assay; assay type: in vitro ADME; conditions: 5 μM, A-B direction, with Verapamil (25 μM)
Summary of the method: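 Passive A-to-B permeability with P-gp inhibited by verapamil (25 μM); compound at 5 μM, n=2. Both compartments sampled at t0 and t120 and quantified by LC-MS/MS, giving apparent permeability in cm/sec from flux, area and concentration.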

[2] = test system: IL-2 stimulated STAT5 phosphorylation in Tall-1 human T cell line (JAK3); assay: Cellular JAK3 potency assay: inhibition of IL-2 stimulated pSTAT5 in Tall-1 T cells; assay type: cell-based; conditions: IL-2 stimulated pSTAT5, Tall-1 T cells
Summary of the method: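 AlphaLISA SureFire Ultra measures STAT5 Tyr694/699 phosphorylation in lysed Tall-1 human T cells. Cells were exposed to compound for 1 h at 37 °C before a 30 min IL-2 challenge (300 ng/ml final). Values are pIC50 means with standard deviation from signal-versus-concentration curves.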

JAK2 = JAK2 (Homo sapiens (Human), UniProt O60674); assay: Biochemical JAK2 kinase assay (LanthaScreen)
JAK2, sequence (O60674 whole entry): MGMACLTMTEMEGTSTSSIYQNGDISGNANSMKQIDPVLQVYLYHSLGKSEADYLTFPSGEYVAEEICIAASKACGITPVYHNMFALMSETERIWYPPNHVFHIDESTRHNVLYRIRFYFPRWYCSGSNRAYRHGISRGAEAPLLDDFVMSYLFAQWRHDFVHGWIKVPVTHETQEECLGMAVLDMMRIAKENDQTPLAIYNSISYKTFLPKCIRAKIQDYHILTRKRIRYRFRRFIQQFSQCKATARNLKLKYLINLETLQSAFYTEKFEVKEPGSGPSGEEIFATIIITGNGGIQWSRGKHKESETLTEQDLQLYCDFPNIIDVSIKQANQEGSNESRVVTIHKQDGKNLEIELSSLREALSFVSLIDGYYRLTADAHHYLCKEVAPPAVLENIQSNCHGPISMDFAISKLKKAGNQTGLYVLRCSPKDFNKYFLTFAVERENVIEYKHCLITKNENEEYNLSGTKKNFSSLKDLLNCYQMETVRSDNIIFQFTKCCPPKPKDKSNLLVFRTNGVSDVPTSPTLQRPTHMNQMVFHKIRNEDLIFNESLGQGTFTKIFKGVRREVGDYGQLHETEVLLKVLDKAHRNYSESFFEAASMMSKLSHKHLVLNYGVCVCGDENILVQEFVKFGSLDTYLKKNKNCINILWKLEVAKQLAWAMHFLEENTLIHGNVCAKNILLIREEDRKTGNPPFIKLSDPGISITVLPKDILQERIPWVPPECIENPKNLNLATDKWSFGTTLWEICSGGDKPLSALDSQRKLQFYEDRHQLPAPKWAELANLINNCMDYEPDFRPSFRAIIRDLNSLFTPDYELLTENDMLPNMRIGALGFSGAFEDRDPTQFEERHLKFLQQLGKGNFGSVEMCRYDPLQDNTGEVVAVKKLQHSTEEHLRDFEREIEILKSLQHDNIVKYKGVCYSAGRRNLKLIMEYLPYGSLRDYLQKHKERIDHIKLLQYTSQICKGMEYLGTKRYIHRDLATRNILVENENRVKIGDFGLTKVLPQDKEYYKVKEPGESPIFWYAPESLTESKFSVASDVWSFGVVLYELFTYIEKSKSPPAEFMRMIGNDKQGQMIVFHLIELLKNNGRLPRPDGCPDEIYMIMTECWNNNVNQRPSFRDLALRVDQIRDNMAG
Summary of the method: as §1

JAK3 = JAK3 (Homo sapiens (Human), UniProt P52333); assay: Biochemical JAK3 kinase assay (LanthaScreen); conditions: for JAK3 (pKi)-JAK1 (pKi): selectivity JAK3 over JAK1, difference of pKi
JAK3, sequence (P52333 whole entry): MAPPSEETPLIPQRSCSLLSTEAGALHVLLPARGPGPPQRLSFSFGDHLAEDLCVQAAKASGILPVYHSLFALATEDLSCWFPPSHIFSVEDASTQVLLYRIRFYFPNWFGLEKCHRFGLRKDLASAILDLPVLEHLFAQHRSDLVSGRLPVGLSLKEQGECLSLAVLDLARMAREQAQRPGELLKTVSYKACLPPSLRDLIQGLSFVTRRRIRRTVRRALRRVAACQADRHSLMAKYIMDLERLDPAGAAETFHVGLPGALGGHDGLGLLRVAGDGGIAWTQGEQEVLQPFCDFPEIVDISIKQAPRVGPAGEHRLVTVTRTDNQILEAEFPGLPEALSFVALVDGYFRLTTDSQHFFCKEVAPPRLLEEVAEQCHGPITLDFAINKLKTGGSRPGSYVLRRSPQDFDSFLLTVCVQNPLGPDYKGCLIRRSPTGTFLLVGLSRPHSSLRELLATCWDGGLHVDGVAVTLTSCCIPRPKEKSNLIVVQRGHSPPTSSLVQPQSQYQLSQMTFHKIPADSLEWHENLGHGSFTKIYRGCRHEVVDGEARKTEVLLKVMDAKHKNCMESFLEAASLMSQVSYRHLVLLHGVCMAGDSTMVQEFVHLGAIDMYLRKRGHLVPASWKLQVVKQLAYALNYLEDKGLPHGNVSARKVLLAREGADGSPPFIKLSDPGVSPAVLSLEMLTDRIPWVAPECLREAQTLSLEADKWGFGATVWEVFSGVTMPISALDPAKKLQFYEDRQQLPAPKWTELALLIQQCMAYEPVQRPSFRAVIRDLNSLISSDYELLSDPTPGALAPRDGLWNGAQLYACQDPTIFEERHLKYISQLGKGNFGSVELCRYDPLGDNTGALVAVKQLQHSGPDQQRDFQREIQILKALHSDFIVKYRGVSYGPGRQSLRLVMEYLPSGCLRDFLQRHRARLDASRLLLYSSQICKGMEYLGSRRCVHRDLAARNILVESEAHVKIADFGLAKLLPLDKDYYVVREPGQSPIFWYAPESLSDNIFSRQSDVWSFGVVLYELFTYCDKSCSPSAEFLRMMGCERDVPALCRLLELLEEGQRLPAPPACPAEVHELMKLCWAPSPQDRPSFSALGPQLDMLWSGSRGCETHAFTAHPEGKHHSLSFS
Summary of the method: as §1

Compound | Kp [1] | Tyk 2 (pKi) (Tyk2) | JAK 1 (pKi) (JAK1) | Caco Kp (Caco-2 cell monolayers) | Tall-1 (pIC50) [2] | JAK 2 (pKi) (JAK2) | JAK 3 (pKi) (JAK3) | JAK3 (pKi)-JAK1 (pKi) (JAK3)
C=CC(=O)N1CCN(CCn2c(=O)ccc3cnc(Nc4ccc(N5CCN(C(=O)CSC)CC5)cc4)nc32)CC1 [Example 150] | > 100 | E (E represents a pKi value of 7 or below (Ki of 100 nM or above)) | E (E represents a pKi value of 7 or below (Ki of 100 nM or above)) | A (A represents a value below 5×10^−6 cm/sec) | B (B represents a pC50 value between 6.7 (included) and 7.5 (IC50 between 200 nM and 32 nM)) | E (E represents a pKi value of 7 or below (Ki of 100 nM or above)) | A (A represents a pKi value≥10 (Ki≤0.1 nM)) | A (A represents a value of 3 or above)
C=CC(=O)N1CCN(CCn2c(=O)ccc3cnc(Nc4ccc(N5CCN(C(=O)CCSC)CC5)cc4)nc32)[C@@H](C)C1 [Example 171] | > 1000 | E (E represents a pKi value of 7 or below (Ki of 100 nM or above)) | E (E represents a pKi value of 7 or below (Ki of 100 nM or above)) | B (B represents a value between 5×10^−6 and 10×10^−6 cm/sec) | A (A represents a pIC50 value≥7.5 (IC50≤32 nM)) | E (E represents a pKi value of 7 or below (Ki of 100 nM or above)) | A (A represents a pKi value≥10 (Ki≤0.1 nM)) | A (A represents a value of 3 or above)
C=CC(=O)N1CC(CCn2c(=O)ccc3cnc(Nc4ccc(CCN(C)C)cc4)nc32)C1 [Example 89] | > 100 | E (E represents a pKi value of 7 or below (Ki of 100 nM or above)) | E (E represents a pKi value of 7 or below (Ki of 100 nM or above)) | A (A represents a value below 5×10^−6 cm/sec) | A (A represents a pIC50 value≥7.5 (IC50≤32 nM)) | E (E represents a pKi value of 7 or below (Ki of 100 nM or above)) | B (B represents pKi value between 9 and 10 (Ki between 1 nM and 0.1 nM)) | A (A represents a value of 3 or above)
C=CC(=O)N1CC(CCn2c(=O)ccc3cnc(Nc4ccc(N5CCSCC5)cc4)nc32)C1 [Example 26] | > 1000 | E (E represents a pKi value of 7 or below (Ki of 100 nM or above)) | E (E represents a pKi value of 7 or below (Ki of 100 nM or above)) | C (C represents a value between 10×10^−6 and 30×10^−6 cm/sec) | B (B represents a pC50 value between 6.7 (included) and 7.5 (IC50 between 200 nM and 32 nM)) | E (E represents a pKi value of 7 or below (Ki of 100 nM or above)) | B (B represents pKi value between 9 and 10 (Ki between 1 nM and 0.1 nM)) | A (A represents a value of 3 or above)
C=CC(=O)N1CC(CCn2c(=O)ccc3cnc(Nc4cccc(CN5CCN(C(C)=O)CC5)c4)nc32)C1 [Example 133] | > 100 | E (E represents a pKi value of 7 or below (Ki of 100 nM or above)) | E (E represents a pKi value of 7 or below (Ki of 100 nM or above)) | A (A represents a value below 5×10^−6 cm/sec) | B (B represents a pC50 value between 6.7 (included) and 7.5 (IC50 between 200 nM and 32 nM)) | E (E represents a pKi value of 7 or below (Ki of 100 nM or above)) | A (A represents a pKi value≥10 (Ki≤0.1 nM)) | A (A represents a value of 3 or above)
C=CC(=O)N1CCN(CCn2c(=O)ccc3cnc(Nc4ccc(N5CCN(C(C)=O)CC5)cc4)nc32)CC1 [Example 79] | > 1000 | E (E represents a pKi value of 7 or below (Ki of 100 nM or above)) | E (E represents a pKi value of 7 or below (Ki of 100 nM or above)) | A (A represents a value below 5×10^−6 cm/sec) | B (B represents a pC50 value between 6.7 (included) and 7.5 (IC50 between 200 nM and 32 nM)) | E (E represents a pKi value of 7 or below (Ki of 100 nM or above)) | B (B represents pKi value between 9 and 10 (Ki between 1 nM and 0.1 nM)) | A (A represents a value of 3 or above)
C=CC(=O)N1CC(CCn2c(=O)ccc3cnc(Nc4cccc(N5CCN(C)CC5)c4)nc32)C1 [Example 31] | > 50 | E (E represents a pKi value of 7 or below (Ki of 100 nM or above)) | E (E represents a pKi value of 7 or below (Ki of 100 nM or above)) | A (A represents a value below 5×10^−6 cm/sec) | B (B represents a pC50 value between 6.7 (included) and 7.5 (IC50 between 200 nM and 32 nM)) | E (E represents a pKi value of 7 or below (Ki of 100 nM or above)) | B (B represents pKi value between 9 and 10 (Ki between 1 nM and 0.1 nM)) | A (A represents a value of 3 or above)
C=CC(=O)N1CCN(CCn2c(=O)ccc3cnc(Nc4ccc(N5CCN(C(=O)CSC)CC5)cc4)nc32)[C@@H](C)C1 [Example 173] | > 100 | E (E represents a pKi value of 7 or below (Ki of 100 nM or above)) | E (E represents a pKi value of 7 or below (Ki of 100 nM or above)) | A (A represents a value below 5×10^−6 cm/sec) | B (B represents a pC50 value between 6.7 (included) and 7.5 (IC50 between 200 nM and 32 nM)) | E (E represents a pKi value of 7 or below (Ki of 100 nM or above)) | B (B represents pKi value between 9 and 10 (Ki between 1 nM and 0.1 nM)) | A (A represents a value of 3 or above)
C=CC(=O)N1CCN(CCn2c(=O)ccc3cnc(Nc4ccc(N5CCN(C(C)=O)CC5)cc4)nc32)[C@@H](C)C1 [Example 155] | > 1000 | E (E represents a pKi value of 7 or below (Ki of 100 nM or above)) | E (E represents a pKi value of 7 or below (Ki of 100 nM or above)) | A (A represents a value below 5×10^−6 cm/sec) | B (B represents a pC50 value between 6.7 (included) and 7.5 (IC50 between 200 nM and 32 nM)) | E (E represents a pKi value of 7 or below (Ki of 100 nM or above)) | B (B represents pKi value between 9 and 10 (Ki between 1 nM and 0.1 nM)) | A (A represents a value of 3 or above)
C=CC(=O)N1CC(CCn2c(=O)ccc3cnc(Nc4cccc(CN5CCN(C(=O)CSC)CC5)c4)nc32)C1 [Example 134] | > 100 | E (E represents a pKi value of 7 or below (Ki of 100 nM or above)) | E (E represents a pKi value of 7 or below (Ki of 100 nM or above)) | A (A represents a value below 5×10^−6 cm/sec) | B (B represents a pC50 value between 6.7 (included) and 7.5 (IC50 between 200 nM and 32 nM)) | E (E represents a pKi value of 7 or below (Ki of 100 nM or above)) | A (A represents a pKi value≥10 (Ki≤0.1 nM)) | A (A represents a value of 3 or above)

— patent US11697648B2, “Fused pyrimidine pyridinone compounds as JAK inhibitors” (THERAVANCE BIOPHARMA R&D IP, LLC, priority 2019, dated 2023)
